In US9802929B2, “Benzo five-membered nitrogen heterocyclic piperidine or piperazine derivatives and preparation methods and pharmaceutical compositions thereof” (Shenyang Haiwang Biotechnology Co., Ltd., priority 2012, dated 2017):
pEC50: −log10 of the molar value.

Legend:
[1] = tested on: In-Vitro Vascular Smooth Muscle of Rabbits; assay: Relaxant effect on in vitro rabbit vascular smooth muscle contraction induced by hyperkalemia solution; conditions: for pEC50: Oryctolagus cuniculus; for relaxant effect against hyperkalemia solution contraction (in words): rabbit vascular smooth muscle
[2] = tested on: In Vitro Vascular Smooth Muscle of Rabbits; assay: Relaxant effect on in vitro rabbit vascular smooth muscle contraction induced by adrenaline (AD); conditions: for pEC50: Oryctolagus cuniculus; for relaxant effect against AD contraction (in words): rabbit vascular smooth muscle, AD 10^−5 mol/L
From the text: Krebs-Henseleit (K—H) physiological solution: NaCl 6.92 (concentration units), KCl 0.35, MgSO4 0.29, KH2PO4 0.16, CaCl2 0.28, NaHCO3 2.1, glucose 2.0 (g/L), pH 7.2.
Preparation of compound II-1 to II-87 solutions: Weigh a certain quality compound samples and dilute to concentrations (10^−10˜10^−3 mol/L) with distilled water, standby.
(§1) Cut the chest open quickly after stunning, strip out the descending aorta, then after removing the surrounding connective tissue and adipose tissue (if performed serotonin receptor antagonist experiments, endothelial cells should be removed using a smooth stainless steel bars), cut the vessels into 3-5 mm vascular ring, then pass the steel hook through the blood vessel ring, with one end is fixed to the vent hook and the other end connected to the tension transducer, then place the specimens into bath tube containing 20 mL of nutrient solution, and record tension change by tension transducer. Maintain tube temperature at 37±0.5° C., and pass bubbles (95% O2+5% CO2) into the solution as a speed of 1-2 bubbles/minute. Place an initial load of 1.5 g on the rings, and change nutrient every 20 minutes, then balance for 2 hours and start test after baseline readings are stabilized.
After tension readings are stabilized, record a certain length of tension curve, and add spasmogens agent AD (10^−5 mol/L) to induce contraction; if a maximum contract is achieved, wash the specimens thoroughly, and change K—H solution every 20 minutes, and then balance for 60 minutes; after baseline readings are stabilized, induce contract with spasmogens agent again. When the maximum contract in the later induction is consistent with the former induction, add compound II-1 to II-34 solutions (1×10^−10 to 1×10^−3 mol/L), II-35 to II-87 solutions (1×10^−8-1×10^−3 mol/L), and record the curves. Draw a dose-response curve using maximum relaxation response as 100%, relaxation percentage as ordinate and negative logarithms of the each concentration as abscissa.

SD rats = assay: Effect on blood pressure of urethane-anesthetized SD rats; type: in vivo; conditions: 4.0 mg/kg orally
Experimental: Four SD rats were anesthetized with urethane ([…]); after vital signs were stable, measure blood pressure through carotid artery cannulation. After blood pressure is stabilized, compound II-36 was administered orally (4.0 mg/kg, body weight), and blood pressure changes with time were recorded; study results are shown in Table 4, 5 and 6.

Kunming mice = assay: Bone marrow micronucleus test; conditions: mouse, in vivo
Experimental: After four days of continuous administration, perform bone marrow micronucleus test on the 5th day.
Positive contro, Cyclophosphamide 60 mg/kg/day; negative control, saline solution 0.1 ml/10 g/day. After four days of continuous administration, perform bone marrow micronucleus test on the 5th day.
The mice were sacrificed by cervical dislocation, and quickly stripped out of the femur and sternum;
blood and muscles were removed, epiphysis was cleaned; then sternum bone marrow was transfer with a hemostat squeeze onto clean slides with drops of calf serum or wash the femoral the marrow with fetal calf serum directly onto clean slides; after mixing, adjust slides well; then put the adjusted and aired slide into a staining jar filled with methanol, and allow to fix for 15 minutes; and then take it out and place in air until dry out; then, use freshly prepared Giemsa application solution (one sample of Giemsa stock solution and nine samples of phosphate buffer pH 6.8), stained for 10 minutes to wash away slide dye with small stream of water, and then observe under a microscope after it is dried.

5-HT2A receptors = assay: Antagonism of 5-HT cumulative contraction of rabbit aorta, pA2
From the text: as §1
After the tension is stabilized, record a certain length of the curve, and add 5-HT (10^−7-3×10^−4 mol/L) to the tube until a maximum response is achieved, and then record the curve. Then wash the specimen with K—H solution repeatedly, balance for 1.5 h, add compound II-36 (3×10^−6 mol/L), and 20 minutes later, add 5-HT following a same procedure. Mark 5-HT contraction as ordinate using maximum response as 100% base. […]

[3] = relaxation of rabbit aortic rings contracted by hyperkalemia solution (K+ 60 mmol/L)
[4] = relaxation of rabbit aortic rings contracted by AD (10^−5 mol/L)
[5] = time after administration 90, n = 4

In the case of `FC(F)(F)c1cccc(N2CCN(CCCCn3cnc4ccccc43)CC2)c1` [Compound II-36, 1-(4-(4-(3-trifluoromethylphenyl)piperazin-1-yl)butyl)-1H-benzimidazole], the pEC50 [1, 3] was 5.34, the “relaxant effect against hyperkalemia solution contraction (in words)” value [1] was “significant relaxant effect” and the pEC50 [2, 4] was 5.73. For the same compound, the “relaxant effect against AD contraction (in words)” value [2] was “most significant relaxation effects”, the “hypotensive effect (in words)” value (SD rats) was “significant hypotensive effect” and the “time until blood pressure recovered to the level before administration” value (SD rats) was 3.5 h. The “mean arterial pressure (MAP)” value (SD rats; time after administration 0, n = 4) was 91.50 mmHg, the “mean arterial pressure (MAP)” value (SD rats; time after administration 15, n = 4) was 73.40 mmHg and the “mean arterial pressure (MAP)” value (SD rats; time after administration 30, n = 4) was 74.52 mmHg. The “mean arterial pressure (MAP)” value (SD rats; time after administration 60, n = 4) was 72.77 mmHg, the “Systolic blood pressure (SBP)” value (SD rats; [5]) was 98.71 mmHg and the “mean arterial pressure (MAP)” value (SD rats; [5]) was 68.81 mmHg. For the same compound, the “mean arterial pressure (MAP)” value (SD rats; time after administration 120, n = 4) was 83.12 mmHg, the “mean arterial pressure (MAP)” value (SD rats; time after administration 150, n = 4) was 84.47 mmHg and the “mean arterial pressure (MAP)” value (SD rats; time after administration 180, n = 4) was 84.83 mmHg. For the same compound, the “mean arterial pressure (MAP)” value (SD rats; time after administration 210, n = 4) was 88.54 mmHg, the “polychromatic erythrocytes with micronucleus” value (Kunming mice; both, Kunming, 4 days) was 2.0±0.333 ‰ and the “bone marrow micronucleus test result” value (Kunming mice) was “negative”.
For `FC(F)(F)c1cccc(N2CCN(CCCCn3nnc4ccccc43)CC2)c1` [Compound II-65, 1-(4-(4-(3-trifluoromethylphenyl)piperazin-1-yl)butyl)-1H-benzotriazole], the “relaxant effect against hyperkalemia solution contraction (in words)” value [1] was “relatively significant relaxant effect”, the “−logEC50” value [1, 3] was 5.55 ± 0.03 and the “relaxant effect against AD contraction (in words)” value [2] was “most significant relaxation effects”. The “−logEC50” value [2, 4] was 6.19 ± 0.03 and the “PA2 value against 5-HT contraction” value (5-HT2A receptors) was 6.726±0.089.
`c1ccc2c(c1)nnn2CCCCN1CCN(c2nsc3ccccc23)CC1` [Compound II-68, 3-(4-(4-(1H-benzotriazol-1-yl)butyl)piperazin-1-yl)benzisothiazole] was tested, and the pEC50 [1, 3] was 4.77, the pEC50 [2, 4] was 8.07 and the “relaxant effect against AD contraction (in words)” value [2] was “most significant relaxation effects”. The “PA2 value against 5-HT contraction” value (5-HT2A receptors) was 8.86±0.14.
